Earlier results, collected in patent US20230056424A1, “PREVENTION OF THE CONVERSION OF PHARMACEUTICAL AGENTS INTO TOXIC N-NITROSAMINE COMPOUNDS” (ALFRED E. TIEFENBACHER (GMBH & CO. KG), priority 2021, published 2023).

Conditions: standards established by the health authorities

O=NN1C[C@H]2C[C@@H](C1)c1cc3nccnc3cc12 [N-nitroso-varenicline]
maximum allowed daily intake: 37 ng/day
